How the values were obtained:
[1] = molecular target: T1, Human DYRK1B (Homo sapiens, UniProt Q9Y463); assay: DYRK1B Kinase TR-FRET (IMAP-Tb) Assay; type: biochemical; details: for IC50: TR-FRET (IMAP-Tb), ATP 70 μM, 37° C., 60 minutes, average of multiple runs, read-out: Enzyme IC50 (μM) DYRK1B; for inhibition at 10 µM: % inhibition at 10 μM test compound concentration, where IC50 not determined
T1 construct: purchased Invitrogen PR8350B (former PV4649)
Description: DYRK1B Kinase TR-FRET (IMAP-Tb) Assay The kinase TR-FRET (IMAP-Tb) assay uses a fluorescence labeled substrate peptide in the kinase reaction. Upon phosphorylation by the kinase, phosphopeptide is produced, which will be detected by the binding solution provided in IMAP TR-FRET binding kit. After the completion of the kinase reaction, the reaction will be stopped by adding the binding solution containing terbium tracer. This tracer is immobilized on the surface of the IMAP beads, which also contain metal ions on the beads that bind to the phospho-groups of the products. Thus the phosphorylated product of the reaction can enter into close proximity to the tracer, producing resonance energy transfer. Due to the long lifetime of terbium (Tb) fluorescence the detection can be run in time resolved mode, which virtually eliminates fluorescence interference from assay components or compounds. The TR-FRET signal measurement from this assay, given as an IC50 measurement, is a measure of a test compound's ability to interfere with the phosphorylation of the peptide substrate, that is it inhibits the phosphorylation of the substrate peptide by DYRK1B, and is thus a measure of the test compound's ability to inhibit the activity of DYRK1B. […] Human DYRK1B: from Invitrogen. Part #PR8350B (former PV4649) • 2. Substrate Peptide: in-house synthesized: RRRFRPASPLRGPPK • 3. IMAP TR-FRET IPP Explorer Kit: from Molecular Devices. Part #R8157 • 4. Kinase Assay Buffer (KAB): 10 mM HEPES pH 7.0, 50 mM NaCl, 5 mM MgCl2, 1 mM DTT, 1 mM NaVO4, 200 μg/mL BSA (0.02%) • 5. Assay Plate: Remp polypropylene clear 384-well microplate. Cat#23490-102 • 6. Detection Plate: Costa black 384-well microplate. Cat #3710 Assay Procedure: This assay was performed as follows: • 1. Transfer 1.5 μL of 20× compound solution to each well of an assay plate. • 2. Add to each well 22.5 μL of KAB Buffer. • 3. Add to each well 3 μL of the solution of DYRK1B and ATP. […] Add to each well 3 μL of the substrate peptide. The assay concentration is 1.0 μM • 5. Incubate the assay plates at 37° C. for 60 minutes. • 6. Add 18 μL of Detection Solution (1:800 diluted Progress bead stock, 1:400 diluted Tb stock, 80% Buffer A, and 20% Buffer B) into each well of detection plates. • 7. Transfer 6 μL of assay solution from the assay plate to the detection plate. • 8. Shake detection plates for 30 minutes. • 9. Read plates in Envision with wavelength set at excitation 340 nm for Tb, emission 490 nm, and […] 520 nm. • 10. Calculation: TR-FRET Signal=(Reading at […]/Reading at 490 nM)×2000000

[2] = molecular target: T2, Human DYRK1A (Homo sapiens, UniProt Q13627); assay: DYRK1A Kinase TR-FRET (IMAP-Tb) Assay; type: biochemical; details: for inhibition at 10 µM: % inhibition at 10 μM test compound concentration, where IC50 not determined, read-out: % inhibition DYRK1A (printed in the Enzyme IC50 DYRK1A column); for IC50: TR-FRET (IMAP-Tb), ATP 70 μM, 37° C., 60 minutes, average of multiple runs, read-out: Enzyme IC50 (μM) DYRK1A
T2 construct: purchased Invitrogen PV3997
Description: DYRK1A Kinase TR-FRET (IMAP-Tb) Assay
The kinase TR-FRET (IMAP-Tb) assay uses a fluorescence labeled substrate peptide in the kinase reaction. Upon phosphorylation by the kinase, phosphopeptide is produced, which will be detected by the binding solution provided in IMAP TR-FRET binding kit. After the completion of the kinase reaction, the reaction will be stopped by adding the binding solution containing terbium tracer. This tracer is immobilized on the surface of the IMAP beads, which also contain metal ions on the beads that bind to the phospho-groups of the products. Thus the phosphorylated product of the reaction can enter into close proximity to the tracer, producing resonance energy transfer. Due to the long lifetime of terbium (Tb) fluorescence the detection can be run in time resolved mode, which virtually eliminates fluorescence interference from assay components or compounds.
The TR-FRET signal measurement from this assay, given as an IC50 measurement, is a measure of a test compound's ability to interfere with the phosphorylation of the peptide substrate, that is it inhibits the phosphorylation of the substrate peptide by DYRK1A, and is thus a measure of the test compound's ability to inhibit the activity of DYRK1A.
• 1. Human DYRK1A: from Invitrogen. Part #PV3997 • 2. Substrate Peptide: […] • 3. IMAP TR-FRET IPP Explorer Kit: from Molecular Devices. Part #R8157 • 4. Kinase Assay Buffer (KAB): 10 mM HEPES pH 7.0, 50 mM NaCl, 5 mM MgCl2, 1 mM DTT, 1 mM NaVO4, 200 μg/mL BSA (0.02%) • 5. Assay Plate: Remp polypropylene clear 384-well microplate. […] Detection Plate: Costa black 384-well microplate. […] Transfer 1.5 μL of 20× compound solution to each well of an assay plate. • 2. Add to each well 22.5 μL of KAB Buffer. • 3. Add to each well 3 μL of the solution of DYRK1A and ATP. […] Add to each well 3 μL of the substrate peptide. The assay concentration is 1.0 μM • 5. Incubate the assay plates at 37° C. for 60 minutes. • 6. Add 18 μL of Detection Solution (1:800 diluted Progress bead stock, 1:400 diluted Tb stock, 80% Buffer A, and 20% Buffer B) into each well of detection plates. • 7. Transfer 6 μL of assay solution from the assay plate to the detection plate. • 8. Shake detection plates for 30 minutes. • 9. Read plates in Envision with wavelength set at excitation 340 nm for Tb, emission 490 nm, and […].

T1 sequence (Q9Y463 whole entry): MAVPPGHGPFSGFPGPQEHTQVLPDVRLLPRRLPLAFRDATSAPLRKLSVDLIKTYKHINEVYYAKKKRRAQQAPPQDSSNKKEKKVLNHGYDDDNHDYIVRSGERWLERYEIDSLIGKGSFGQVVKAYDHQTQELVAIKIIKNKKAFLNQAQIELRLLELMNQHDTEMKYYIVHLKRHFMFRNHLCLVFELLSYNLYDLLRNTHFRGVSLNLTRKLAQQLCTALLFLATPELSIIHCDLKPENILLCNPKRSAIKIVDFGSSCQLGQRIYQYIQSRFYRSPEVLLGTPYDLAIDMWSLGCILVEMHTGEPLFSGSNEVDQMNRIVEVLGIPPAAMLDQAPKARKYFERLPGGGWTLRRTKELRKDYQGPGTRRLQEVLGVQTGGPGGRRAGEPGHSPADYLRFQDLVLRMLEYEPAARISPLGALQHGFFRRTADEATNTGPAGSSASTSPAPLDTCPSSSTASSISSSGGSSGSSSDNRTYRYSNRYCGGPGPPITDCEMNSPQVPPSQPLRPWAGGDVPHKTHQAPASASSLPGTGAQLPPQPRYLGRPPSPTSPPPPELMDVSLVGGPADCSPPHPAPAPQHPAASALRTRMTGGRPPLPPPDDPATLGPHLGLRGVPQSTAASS

SMILES: COC(=O)c1ccc(C)c(NC(=O)c2cc3cnc(OC)cc3[nH]c2=O)c1 [Example 28, 3-[(7-Methoxy-2-oxo-1,2-dihydro-[1,6]naphthyridine-3-carbonyl)-amino]-4-methyl-benzoic acid methyl ester]
- IC50 [1]: > 10 µM
- inhibition at 10 µM [2]: 24%

SMILES: COc1cc2[nH]c(=O)c(C(=O)Nc3cc(C(=O)NCc4ccccc4)ccc3Cl)cc2cn1 [Example 32, 7-Methoxy-2-oxo-1,2-dihydro-[1,6]naphthyridine-3-carboxylic acid (5-benzylcarbamoyl-2-chloro-phenyl)-amide]
- inhibition at 10 µM [1]: 19%
- inhibition at 10 µM [2]: 23%

SMILES: COc1cc2[nH]c(=O)c(C(=O)Nc3cc(C(=O)NCc4ccccc4Cl)ccc3C)cc2cn1 [Example 34, 7-Methoxy-2-oxo-1,2-dihydro-[1,6]naphthyridine-3-carboxylic acid [5-(2-chloro-benzylcarbamoyl)-2-methyl-phenyl]-amide]
- inhibition at 10 µM [1]: 28%
- inhibition at 10 µM [2]: 45%

SMILES: COc1cc2[nH]c(=O)c(C(=O)Nc3cc(C(=O)NCc4cccc(Cl)c4)ccc3C)cc2cn1 [Example 35, 7-Methoxy-2-oxo-1,2-dihydro-[1,6]naphthyridine-3-carboxylic acid [5-(3-chloro-benzylcarbamoyl)-2-methyl-phenyl]-amide]
- inhibition at 10 µM [1]: 35%
- inhibition at 10 µM [2]: 45%

SMILES: COc1cc2[nH]c(=O)c(C(=O)Nc3cc(C(=O)NCc4ccc(Cl)cc4)ccc3C)cc2cn1 [Example 36, 7-Methoxy-2-oxo-1,2-dihydro-[1,6]naphthyridine-3-carboxylic acid [5-(4-chloro-benzylcarbamoyl)-2-methyl-phenyl]-amide]
- IC50 [1]: > 10 µM
- IC50 [2]: > 10 µM

SMILES: COc1cc2[nH]c(=O)c(C(=O)Nc3cc(C(=O)NCc4ccccc4Cl)ccc3Cl)cc2cn1 [Example 39, 7-Methoxy-2-oxo-1,2-dihydro-[1,6]naphthyridine-3-carboxylic acid [2-chloro-5-(2-chloro-benzylcarbamoyl)-phenyl]-amide]
- IC50 [1]: 7.22 µM
- IC50 [2]: 0.63 µM

SMILES: COc1cc2[nH]c(=O)c(C(=O)Nc3cc(C(=O)NCc4cccc(Cl)c4)ccc3Cl)cc2cn1 [Example 40, 7-Methoxy-2-oxo-1,2-dihydro-[1,6]naphthyridine-3-carboxylic acid [2-chloro-5-(3-chloro-benzylcarbamoyl)-phenyl]-amide]
- IC50 [2]: 0.051 µM

SMILES: COc1cc2[nH]c(=O)c(C(=O)Nc3cc(C(=O)NCc4ccc(Cl)cc4)ccc3Cl)cc2cn1 [Example 41, 7-Methoxy-2-oxo-1,2-dihydro-[1,6]naphthyridine-3-carboxylic acid [2-chloro-5-(4-chloro-benzylcarbamoyl)-phenyl]-amide]
- IC50 [1]: > 10 µM
- IC50 [2]: > 10 µM

SMILES: COc1cc2[nH]c(=O)c(C(=O)Nc3cc(C(=O)NCc4cccs4)ccc3Cl)cc2cn1 [Example 42, 7-Methoxy-2-oxo-1,2-dihydro-[1,6]naphthyridine-3-carboxylic acid {2-chloro-5-[(thiophen-2-ylmethyl)-carbamoyl]-phenyl}-amide]
- inhibition at 10 µM [1]: 41%
- inhibition at 10 µM [2]: 27%

SMILES: COC(=O)c1ccc(C)c(NC(=O)c2cc3cnc(N4CCN(C)CC4)cc3[nH]c2=O)c1 [Example 74, 4-Methyl-3-{[7-(4-methyl-piperazin-1-yl)-2-oxo-1,2-dihydro-[1,6]naphthyridine-3-carbonyl]-amino}-benzoic acid methyl ester]
- IC50 [1]: 3.55 µM
- IC50 [2]: 0.96 µM

SMILES: COC(=O)c1ccc(C)c(NC(=O)c2cc3ccc(N4CCN(C)CC4)nc3[nH]c2=O)c1 [Example 87, 4-Methyl-3-{[7-(4-methyl-piperazin-1-yl)-2-oxo-1,2-dihydro-[1,8]naphthyridine-3-carbonyl]-amino}-benzoic acid methyl ester]
- IC50 [1]: 1.31 µM
- IC50 [2]: 0.915 µM

SMILES: COC(=O)c1ccc(C)c(NC(=O)c2cc3ccc(OC)nc3[nH]c2=O)c1 [Example 89, 3-[(7-Methoxy-2-oxo-1,2-dihydro-[1,8]naphthyridine-3-carbonyl)-amino]-4-methyl-benzoic acid methyl ester]
- inhibition at 10 µM [1]: 47%
- IC50 [2]: 0.125 µM

SMILES: COc1ccc2cc(C(=O)Nc3cc(C(=O)NCc4ccccc4)ccc3Cl)c(=O)[nH]c2n1 [Example 94, N-(5-(Benzylcarbamoyl)-2-chlorophenyl)-7-methoxy-2-oxo-1,2-dihydro-1,8-naphthyridine-3-carboxamide]
- IC50 [1]: 0.079 µM
- IC50 [2]: 0.05 µM

SMILES: COc1ccc2cc(C(=O)Nc3cc(C(=O)NCc4ccccc4)ccc3C)c(=O)[nH]c2n1 [Example 98, N-(5-(Benzylcarbamoyl)-2-methylphenyl)-7-methoxy-2-oxo-1,2-dihydro-1,8-naphthyridine-3-carboxamide]
- IC50 [1]: 0.69 µM
- IC50 [2]: 0.79 µM

SMILES: COc1ccc2cc(C(=O)Nc3cc(C(=O)NC(CCN)c4ccccc4)ccc3C)c(=O)[nH]c2n1 (centres unmarked) [Example 100, N-(5-(3-Amino-1-phenylpropylcarbamoyl)-2-methylphenyl)-7-methoxy-2-oxo-1,2-dihydro-1,8-naphthyridine-3-carboxamide]
- IC50 [1]: 0.0158 µM
- IC50 [2]: 0.0162 µM

Source: patent US20120184562A1, “1,6- AND 1,8-NAPHTHYRIDINES” (priority 2011, published 2012)
